# Data published in US10980830B2, “Systems and methods for treating skin conditions with magnesium ion compositions” (priority 2017, dated 2021).
# Where two headings read alike, the source gives them in different places.
# Experiments:
# plaque psoriasis [1] = tested on: plaque psoriasis
# Source text: In another example, a person with plaque psoriasis on the extensor surface of their right knee for over 15 years was started on magnesium treatment. Prior treatment with topical hydrocortisone was stopped two weeks prior. Applications using Johnson+Johnson Large Sterile Waterproof Pads with QUILTVENT™ Technology. 1.8 cc solution of 20% magnesium sulfate solution (APP Fresenius Kabi Lake Zurich, Ill. NDC63323-064-10, 50% solution diluted with sterile water) was applied every third day for eight hour durations. […] After the 10 applications of the 20% magnesium sulfate solution, the strength of the solution was increased to 40% for the next ten applications and to 50% for the following 10 applications.
# A trial using a 50% solution of magnesium chloride was made by dissolving the magnesium flakes with distilled water (Hinkley Springs) and applied to the Johnson+Johnson Large Sterile Waterproof Pads with QUILTVENT™. Applications were initially for eight hours every third day. […] Following the twentieth application the applications were increased to twelve hour duration with frequency increased to every other day. […] Applications were stopped to determine if total remission been achieved. […] Treatment was continued for three additional treatments.
# adhesive capsulitis [2] = details: 1.8 cc of 58% wt/vol on waterproof pad, normal skin, kept in place 24 hours
# Source text: The same Johnson+Johnson waterproof pad was applied to normal skin over my right shoulder affected with an exacerbation of adhesive capsulitis.
# [3] = tested on: sacroiliac (SI) joints pain and stiffness
# Source text: In another example, a trial of transdermal magnesium ions delivered via iontophoresis in an effort to relieve pain, tenderness, and stiffness localized to sacroiliac (SI) joints. A patient with symptoms including exacerbation of chronic low back pain associated with pain, stiffness, and tenderness of both sacroiliac joints with pain radiating to the right iliac crest over a five week period. Symptoms were moderate to severe enough to make standing erect difficult at times and walking was slow and deliberate.
# An iontophoresis pad with 120 mg of magnesium chloride diluted in 4 cc of distilled water was placed over the right sacroiliac joint for 80 minutes for delivery of 40 mA minutes with a delivery setting of 0.5 mA/minute at 8:00 pm.
# A second identical dose was delivered with the same iontophoresis electrodes in place. […] Ten minutes following delivery of the first dose to the […] SI joint a second identical iontophoresis dose was delivered with the same electrodes in place.
# [4] = tested on: pain and stiffness of the lower back
# Protocol: In an effort to determine if passive diffusion of magnesium ions applied over a larger surface area under a hydrocolloid dressing could affect the pain and stiffness of the lower back approximately 0.8 mL of 50% magnesium chloride solution was sprayed on a 4″×4″ hydrocolloid patch (DuoDERM™ Extra Thin CGF Dressing, by ConvaTec) and the moist patch was placed over the lumbar spine where the pain was now localized. This was kept in place during an 8 hour period. […] A third application of a pre-moistened Duoderm dressing, this time with approximately 0.5 mL of 40% magnesium chloride solution, sprayed onto the surface prior to application to the lumbar spine area and worn for 48 hours continuously.
# chronic lower back pain = tested on: chronic lower back pain
# Source text: In an effort to determine a threshold for therapeutic response the patient was started on gradually increasing concentrations of magnesium chloride placed on a 4 in.×4 in. hydrocolloid dressing (DupDERM™ Extra Thin CGF, by Convatec). Dosages were always approximately 1 cc sprayed onto surface of the dressing using a 20% solution of Magnesium Chloride (Mylan, NDC 674-134-50) diluted to strengths of 2%, 5%, 10% 15%, and undiluted 20%. Sterile water was used as the diluent (Hospira NDC 0409-4887-17). Dressings were kept in place for 8 hours. This method of application continued with daily graduation in the strength of solution applied. […] Using the same method of application, the dosages were increased to 30%, 40% and 50% solutions now made with magnesium flakes dissolved in distilled water.
# plaque psoriasis [5] = tested on: plaque psoriasis; remark: listed apart in the source
# Source text: Johnson+Johnson Large Sterile Waterproof Pads with QUILTVENT™ Technology were obtained. These are similar to large waterproof bandaids measuring 2.875 inches×4 inches with a central pad that measured 1.85 inches×3 inches.
# adhesive capsulitis [6] = details: for pain with active range of motion of the shoulder: after 16 hours of continued use
# Protocol: A second attempt using transdermal magnesium treatment to affect the pain and inflammation associated with adhesive capsulitis was performed. A 1.3 cc of 50% magnesium sulfate solution (APP Fresenius Kabi Lake Zurich, Ill. NDC63323-064-10) was placed on the positive dispersal pad in an iontophoresis device (iontoPatch 80 manufactured by Travini Medical). The NaCl solution supplied with the device was placed on the negative patch. The positive patch was placed over the tender area on the lateral shoulder and kept in place for 10 hours. It was applied at 8:00 pm and removed the next morning before showering at 6:00 am. […] After showering a second replacement patch prepared in the same manner was placed at 6:15 am, 15 minutes after the first iontoPatch was removed.
# The positive side of the patch now placed over a tender area on the anterior shoulder. The second patch application was kept in place for a total of 13.5 hours.
# [7] = tested on: recurrent plaque psoriasis
# [8] = 50% solution, after 15 applications
# [9] = 50% solution, after 20 applications plus ten 12 h applications every other day
# [10] = 50% solution, two weeks after applications were stopped
# [11] = 1.8 cc of 20% solution, 8 h every third day, following 7 applications
# [12] = after increasing strength to 40% and 50% (10 applications each)
structure (smiles),measurement,setting,value
[Cl-].[Cl-].[Mg+2] [magnesium chloride],"fine scaliness and inflammation, early response","plaque psoriasis [1]; 50% solution, 8 h every third day, within days of starting",immediate improvement
same,dermal hypertrophy,plaque psoriasis [1]; [8],improvement
same,fine scales,plaque psoriasis [1]; [8],elimination
same,improvement in inflammation,plaque psoriasis [1]; [8],90-95%
same,dermal hypertrophy,plaque psoriasis [1]; [9],resolved
same,fine scaliness,plaque psoriasis [1]; [9],resolved
same,finding under double polarized light head set apparatus,plaque psoriasis [1]; [10],small erythematous islands were visualized
same,skin appearance,plaque psoriasis [1]; [10],appeared normal
same,pain associated with adhesive capsulitis,adhesive capsulitis [2],no improvement
same,improvement in pain and stiffness of the right SI joint,"[3]; 120 mg in 4 cc water, iontophoresis 40 mA minutes, five hours after the first dose",approximately 50%
same,duration of the improvement,[3]; after two iontophoresis doses on each SI joint,lasted throughout the next day
same,improvement in pain and stiffness of the right SI joint,"[3]; two iontophoresis doses of 120 mg in 4 cc, five hours after completion",80%
same,reduction in pain and stiffness of the left SI joint,"[3]; two iontophoresis doses of 120 mg in 4 cc, two hours after treatments ended",~90%
same,pain and stiffness in the lower back,[4]; 50% solution on hydrocolloid dressing for a total of 9.5 hours,complete relief
same,skin at the application area after the first patch,"[4]; 50% solution on hydrocolloid patch, after removal of the first patch",slightly hyperemic
same,sensation on application of the second patch,"[4]; 50% solution on hydrocolloid patch, second application to the same area",transient burning sensation
same,improvement in pain and stiffness of the lower back,"[4]; about 0.8 mL of 50% solution on 4x4 in. hydrocolloid patch, 8 hour period",80%
same,duration of complete relief,[4]; after 9.5 hours of 50% solution on hydrocolloid dressing,48 h
same,severity of recurring discomfort and stiffness relative to the original pain and stiffness,[4]; on the third day after the 50% solution patches,20%
same,discomfort and stiffness of the lower back,"[4]; third dressing, about 0.5 mL of 40% solution, after eight hours",Resolution
same,improvement in pain and stiffness,"chronic lower back pain; 30%, 40% and 50% solutions on hydrocolloid dressing, 8 hours",incremental therapeutic benefit
same,greatest benefit estimated by the patient,"chronic lower back pain; 50% solution on hydrocolloid dressing, after the 8 hour application",over 70%
same,improvement in pain or stiffness,"chronic lower back pain; about 1 cc of 2% or 5% solution on hydrocolloid dressing, 8 hours",no therapeutic improvement
same,improvement in pain and stiffness,"chronic lower back pain; about 1 cc of 10% solution on hydrocolloid dressing, after 8 hours",10-20%
same,"improvement in pain and stiffness, estimate of the patient","chronic lower back pain; about 1 cc of 15% and 20% solution on hydrocolloid dressing, 8 hours",20-40%
same,skin finding over the previous psoriasis plaque,"plaque psoriasis [5]; 58% wt/vol solution kept in place for 24 hour periods, resolved with days",small 2-4 mm painless flat scabs developed
same,time until erythema and scales of the plaque started to improve,"plaque psoriasis [5]; 58% wt/vol solution on occlusive dressing, following the first application",≤ 24 h
same,remission status of the psoriasis plaque,"plaque psoriasis [5]; 58% wt/vol solution, twelve applications, by the start of week four",complete remission
same,duration of complete remission of the psoriatic lesion,"plaque psoriasis [5]; after pads, prophylactic daily 50% wt/vol spray into the fourth month",continued into the twelfth month
O=S(=O)([O-])[O-].[Mg+2] [magnesium sulfate],itching,plaque psoriasis [1]; [11],almost total relief
same,reduction in scaling,plaque psoriasis [1]; [11],50%
same,course of improvement,"plaque psoriasis [1]; 20%, then 40% and 50% solution",plateaued following the first 10-12 applications
same,scaling between applications,plaque psoriasis [1]; [12],persistent scaling
same,thickness of persisting dermal hypertrophy,plaque psoriasis [1]; [12],approximately 3 mm
same,improvement in pain with active range of motion of the shoulder,"adhesive capsulitis [6]; 1.3 cc of 50% solution, iontophoresis, after 10 hours",40%
same,"active range of motion, affected right versus unaffected left shoulder","adhesive capsulitis [6]; 50% solution, iontophoresis, after 16 hours",no difference
same,pain with active range of motion of the shoulder,"adhesive capsulitis [6]; 50% solution, iontophoresis",no pain
same,pain with active range of motion of the shoulder,"adhesive capsulitis [6]; 50% solution, iontophoresis, listed as magnesium",complete relief
same,reduction in pain with active range of motion of the shoulder,"adhesive capsulitis [6]; 50% solution, iontophoresis, patches worn for a total of 12 hours",80%
same,duration of the beneficial effect,adhesive capsulitis [6]; after two iontophoresis patches with 50% solution,no further treatment was required over the next 10 months
same,resolution of scaliness and erythema,"[7]; 1 cc of 1% solution intra-dermal once daily for four days, not covered, day 14 following the injections",80%
same,inflammatory process and erythema,"[7]; 1 cc of 1% solution intra-dermal once daily for four days, not covered, over the next few days",reduction
same,remission status of the recurrent 1 cm plaque,"[7]; after 1% injections plus iontophoresis of 1.5 cc 50% solution on days 16 and 18, by day 28",complete remission
same,effect on a small area of recurrent plaque psoriasis,[7]; intra-dermal injections of 1% solution,effective
